Source: patent US4918083A, “4,5 Dihydroimidazole compounds which have useful pharmaceutical utility” (Beecham Group p.l.c., priority 1986, dated 1990)
Counter-ions that a name gives are not always drawn. Like-named read-outs stand apart in the source and are kept apart here.

What was measured:
blood glucose = test: Reversal of Adrenaline-Exacerbated Glucose Intolerance in Mice; type: in vivo, CFLP female mice; conditions: Mus musculus, 2 h, oral gavage, glucose 1 g/kg and adrenaline 300 μg/kg s.c. 30 min later, 0-120 min, vs water dosed control, read-out: % Reduction in area under Blood Glucose curve; for inhibition in vivo at 20 µmol/kg: 20 μmol/kg
Procedure: (A) Reversal of Adrenaline-Exacerbated Glucose Intolerance in Mice
CFLP female mice of about 25 g were fasted for 24 hours prior to receiving water (10 ml/kg) or compounds by oral gavage. Thirty minutes later, glucose (1 g/kg) and adrenaline (300 μg/kg) were injected subcutaneously. Blood samples for glucose analysis were taken serially from the tail of each mouse at 0, 30, 60 90 and 120 minutes after dosing glucose and the results are expressed below as the percentage reduction in the area under the blood glucose curve; the compound treated groups being compared to the water dosed control group. Six mice were used in each treatment group.

α2 -Adrenoceptor = biological target: T1, α2 -Adrenoceptor (Homo sapiens, UniProt P08913); test: α2-Adrenoceptor Binding ([3H] Rauwolscine, human platelet membranes)
T1 construct: Human platelet membranes; from tissue; host or cells: human platelet membranes
T1 sequence (P08913 1-465): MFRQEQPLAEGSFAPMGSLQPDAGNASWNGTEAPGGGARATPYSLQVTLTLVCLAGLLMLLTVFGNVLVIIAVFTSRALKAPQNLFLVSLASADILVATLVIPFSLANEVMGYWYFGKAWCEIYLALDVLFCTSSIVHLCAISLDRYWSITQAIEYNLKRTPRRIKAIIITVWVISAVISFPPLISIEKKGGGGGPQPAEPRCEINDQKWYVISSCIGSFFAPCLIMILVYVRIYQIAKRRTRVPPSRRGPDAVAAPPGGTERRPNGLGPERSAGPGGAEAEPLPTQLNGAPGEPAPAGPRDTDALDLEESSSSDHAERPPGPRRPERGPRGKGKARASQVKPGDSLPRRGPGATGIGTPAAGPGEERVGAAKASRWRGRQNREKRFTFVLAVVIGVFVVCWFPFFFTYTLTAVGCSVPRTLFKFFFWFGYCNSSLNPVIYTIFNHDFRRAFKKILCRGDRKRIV
Procedure: (B) α2 -Adrenoceptor Binding
Human platelet membranes were incubated with [^3 H] Rauwolscine (0.5-1.0 nM) for 30 minutes at 30° C. with varying concentrates of the drug (0.1-10,000 nM). The binding assay was stopped by filtering and rinsing on GF/B glass fibre filters.

[1] = human platelet membranes, [3H] Rauwolscine 0.5-1.0 nM, 30 minutes at 30° C., read-out: Binding Affinity Ki

Ki (α2 -Adrenoceptor; [1]) [nM]	SMILES	inhibition in vivo at 20 µmol/kg (blood glucose) [%]	Ki (α2 -Adrenoceptor) [nM]	inhibition in vivo at 10 µmol/kg (blood glucose; 10 μmol/kg) [%]	inhibition in vivo at 5 µmol/kg (blood glucose; 5 μmol/kg) [%]
	CC1c2ccccc2CN1CC1=NCCN1 (stereo not drawn) [Example 1, 2-[2H-(1-Methyl-1,3-dihydroisoindole)methyl]-4,5-dihydroimidazole]	34	1.7		
4.1	CCC1c2ccccc2CN1CC1=NCCN1 (stereo not drawn) [Example 2, 2-[2H-(1-Ethyl-1,3-dihydroisoindole)methyl]-4,5-dihydroimidazole dihydrochloride]	27			
3.4	CC1c2ccc(Cl)cc2CN1CC1=NCCN1 (stereo not drawn) [Example 3, 2-[2H-(5-Chloro-1-methyl-1,3-dihydroisoindole)methyl]-4,5-dihydroimidazole dihydrochloride]			41	
6.4	CC1c2cc(Cl)ccc2CN1CC1=NCCN1 (stereo not drawn) [Example 4, 2-[2H-(6-Chloro-1-methyl-1,3-dihydroisoindole)methyl]-4,5-dihydroimidazole]	27			
0.8	CC1c2ccc(F)cc2CN1CC1=NCCN1 (stereo not drawn) [Example 5, 2[2H-(5-Fluoro-1-methyl-1,3-dihydroisoindole)methyl]-4,5-dihydroimidazole]				20
3.6	Clc1ccc(C2c3ccccc3CN2CC2=NCCN2)cc1 (stereo not drawn) [Example 6, 2-[2H-(1-(4-Chlorophenyl)-1,3-dihydroisoindole)methyl]-4,5-dihydroimidazole]	15			
1.8	Clc1cccc(C2c3ccccc3CN2CC2=NCCN2)c1 (stereo not drawn) [Example 7]	22			
2.7	Fc1ccc(C2c3ccccc3CN2CC2=NCCN2)cc1 (stereo not drawn) [Example 8, 2-[2H-(1-(4-Fluorophenyl)-1,3-dihydroisoindole)methyl]-4,5-dihydroimidazole]	21			
6.9	c1ccc(C2c3ccccc3CN2CC2=NCCN2)cc1 (stereo not drawn) [Example 9, 2-[2H-(1-Phenyl-1,3-dihydroisoindole)methyl]-4,5-dihydroimidazole]	31			
34	CC(C)C1c2ccccc2CN1CC1=NCCN1 (stereo not drawn) [Example 10, 2-(2H-[1-(1-Methylethyl)-1,3-dihydroisoindole]methyl)-4,5-dihydroimidazole dihydrochloride hemihydrate]				
25	Cc1ccc(C2c3ccccc3CN2CC2=NCCN2)cc1 (stereo not drawn) [Example 11, 2-[2H-(1-(4-Methylphenyl)-1,3-dihydroisoindole)methyl]-4,5-dihydroimidazole]				
2	COc1ccc(C2c3ccccc3CN2CC2=NCCN2)cc1 (stereo not drawn) [Example 12, 2-[2H-(1-(4-Methoxyphenyl)-1,3-dihydroisoindole)methyl]-4,5-dihydroimidazole]	34			
40	c1ccc(CC2c3ccccc3CN2CC2=NCCN2)cc1 (stereo not drawn) [Example 13, 2-[2H-(1-Benzyl-1,3-dihydroisoindole)methyl]-4,5-dihydroimidazole]	16			
